Entries after “also recorded” stand apart in the source; their conditions may differ.
Columns and labels:
Assay type in all cases: cell-based
[1] = tested on: Candida auris MRL# 35646; test: MIC susceptibility testing; settings: CLSI M27-A3; 24 hours
Experimental: (§1) Occidiofungin was purified from a liquid culture of Burkholderia contaminans MS14 as previously described ([21]). MIC susceptibility testing was performed according to the CLSI M27-A3 and M38-A2 standards for the susceptibility testing of yeasts and filamentous fungi, respectively. S. cerevisiae deletion mutants were obtained from the commercially available BY4741 deletion library (Thermo Scientific).

[2] = tested on: Candida glabrata 28271; test: MIC susceptibility testing; settings: CLSI M27-A3
Experimental: as §1

[3] = tested on: Candida tropicalis 28272; test: MIC susceptibility testing; settings: CLSI M27-A3
Experimental: as §1

[4] = tested on: Candida tropicalis 28478; test: MIC susceptibility testing; settings: CLSI M27-A3
Experimental: as §1

[5] = tested on: Mucor circinelloides 19445; test: MIC susceptibility testing; settings: CLSI M38-A2
Experimental: as §1

[6] = tested on: Trichophyton mentagrophytes 28556; test: MIC susceptibility testing; settings: CLSI M38-A2; 96 hours
Experimental: as §1

[7] = tested on: Trichophyton mentagrophytes 28641; test: MIC susceptibility testing; settings: CLSI M38-A2; 96 hours
Experimental: as §1

[8] = tested on: Trichophyton rubrum 28659; test: MIC susceptibility testing; settings: CLSI M38-A2; 96 hours
Experimental: as §1

[9] = tested on: Candida albicans 23512; test: MIC susceptibility testing (fluconazole-resistant strain); design: key to MIC, 50% inhibition: -: indicates absence of isolates with 50% inhibition endpoint; settings: CLSI M27-A3
Experimental: as §1

[10] = tested on: Candida glabrata 27243; test: as above; design: key to MIC, 50% inhibition: -: indicates absence of isolates with 50% inhibition endpoint; settings: CLSI M27-A3
Experimental: as §1

[11] = tested on: Candida albicans strain ATCC 66027; test: Hyphal induction (morphology switching) assay; settings: for % hyphae / % yeast: 1 µg/ml
Experimental: The hyphal induction assay was performed as previously reported with minor modifications ([58]). Candida albicans strain ATCC 66027 was grown in yeast extract-peptone-dextrose (YPD) medium at 30°C for 48 h to reach saturation with an OD600 of 17 to 19. Cells were diluted into fresh Spider medium (1% nutrient broth, 1% mannitol, 0.2% K2HPO4) to obtain an OD600 of 0.05 (∼0.5 × 10^6 to 1 × 10^6 cells/ml) and incubated at 37°C with shaking to induce hyphal formation. Immediately prior to the 37°C incubation, occidiofungin (1 µg/ml; 0.5× MIC) or an equal volume of DMSO was added to the cultures. Aliquots were removed at 0-, 1-, 2-, 4-, and 6-h time points and fixed in 3.7% formaldehyde for later analysis of cell morphology by light microscopy. More than 200 cells were examined for each time point, and cells were scored as having either a yeast or filamentous form, with cells showing any outgrowth considered filamentous. DNA segregation assays were performed using a mid-log culture of S. cerevisiae (BY4743, diploid) and C. albicans (ATCC 66027). The cultures were diluted in fresh YPD medium to obtain OD600s of 0.095 (∼1 × 10^6 to 1.5 × 10^6 cells/ml) and 0.05 (0.5 × 10^6 to 0.8 × 10^6 cells/ml), respectively. A blank vehicle control (DMSO) or occidiofungin (1 µg/ml; 0.5× MIC) was added, and the cultures were placed at 30°C with shaking. Samples were removed at 0.5, 1, and 2 h, and the cells fixed by adding formaldehyde (3.7%). The cells were washed in phosphate-buffered saline (PBS) and permeabilized by adding an equivalent volume of PBS containing 0.2% Triton X-100 for 30 min at room temperature. The cells were washed thrice in PBS, added to concanavalin A-treated glass slides, and overlaid with Vectashield plus DAPI (4′,6-diamidino-2-phenylindole). Images were viewed using a Nikon 50i fluorescence microscope with a 100× oil immersion objective and DAPI filter. Cells were scored on the basis of bud morphology and DNA location. One-way analyses of variance (ANOVAs) with post hoc Tukey’s honestly significant difference (HSD) testing were used to determine statistically significant differences in the distributions between treated and untreated cells. In addition, FM-464 uptake assays were used to observe endocytosis. Three 1-ml aliquots of S. pombe (OD600 of 0.6 to 0.8) were treated with 1 μl DMSO, 0.5 μg/ml (0.5× MIC), or 1 μg/ml (1× MIC) of native occidiofungin for 30 min at 30°C. The cells were washed thrice with PBS and resuspended in YPD medium containing […] FM-464 (Thermo Fisher Scientific). The cells were incubated for 60 min at 30°C, followed by two washes in PBS before visualizing on an Olympus FV1000 confocal microscope with a 40×/0.9 dry objective. Lastly, actin polymerization and depolymerization assays were performed using the Actin polymerization biochem kit (catalog number BK003; Cytoskeleton, Inc.) according to the manufacturer’s instructions.

[12] = tested on: S. pombe; test: FM-464 uptake (endocytosis) assay; settings: 0.5 μg/ml (0.5× MIC) and 1 μg/ml (1× MIC), 30 min, 30°C
Experimental: The hyphal induction assay was performed as previously reported with minor modifications ([58]). Candida albicans strain ATCC 66027 was grown in yeast extract-peptone-dextrose (YPD) medium at 30°C for 48 h to reach saturation with an OD600 of 17 to 19. Cells were diluted into fresh Spider medium (1% nutrient broth, 1% mannitol, 0.2% K2HPO4) to obtain an OD600 of 0.05 (∼0.5 × 10^6 to 1 × 10^6 cells/ml) and incubated at 37°C with shaking to induce hyphal formation. Immediately prior to the 37°C incubation, occidiofungin (1 µg/ml; 0.5× MIC) or an equal volume of DMSO was added to the cultures. Aliquots were removed at 0-, 1-, 2-, 4-, and 6-h time points and fixed in 3.7% formaldehyde for later analysis of cell morphology by light microscopy. More than 200 cells were examined for each time point, and cells were scored as having either a yeast or filamentous form, with cells showing any outgrowth considered filamentous. DNA segregation assays were performed using a mid-log culture of S. cerevisiae (BY4743, diploid) and C. albicans (ATCC 66027). The cultures were diluted in fresh YPD medium to obtain OD600s of 0.095 (∼1 × 10^6 to 1.5 × 10^6 cells/ml) and 0.05 (0.5 × 10^6 to 0.8 × 10^6 cells/ml), respectively. […] Images were viewed using a Nikon 50i fluorescence microscope with a 100× oil immersion objective and DAPI filter. Cells were scored on the basis of bud morphology and DNA location. […]

[13] = T=1hr, replicate 1, untreated 51.7/48.3
[14] = T=1hr, replicate 2, untreated 72.7/27.3
[15] = T=1hr, replicate 3, untreated 43.6/56.4
[16] = T=2hr, replicate 1, untreated 23.4/76.6
[17] = T=2hr, replicate 2, untreated 15.6/84.4
[18] = T=2hr, replicate 3, untreated 14.2/85.8
[19] = T=4hr, replicate 1, untreated 7.1/92.9
[20] = T=4hr, replicate 2, untreated 17.4/82.6
[21] = T=4hr, replicate 3, untreated 13.2/86.8
[22] = T=6hr, replicate 2, untreated 52.2/47.8
[23] = T=6hr, replicate 3, untreated 21.1/78.9

**Q.** What does the source list for occidiofungin?
**A.** MIC, 50% inhibition [1]: 0.125 µg/mL; MIC, 100% inhibition [1]: 0.25 µg/mL; MIC, 50% inhibition ([2]; 24 hours): 4 µg/mL; MIC, 100% inhibition ([2]; 24 hours): 8 µg/mL; MIC, 50% inhibition ([2]; 48 hours): 4 µg/mL; MIC, 100% inhibition ([2]; 48 hours): 8 µg/mL; MIC, 50% inhibition ([3]; 24 hours): 4 µg/mL; MIC, 100% inhibition ([3]; 24 hours): 8 µg/mL; MIC, 50% inhibition ([3]; 48 hours): 4 µg/mL; MIC, 100% inhibition ([3]; 48 hours): 8 µg/mL; MIC, 50% inhibition ([4]; 24 hours): 4 µg/mL; MIC, 100% inhibition ([4]; 24 hours): 8 µg/mL; MIC, 50% inhibition ([4]; 48 hours): 4 µg/mL; MIC, 100% inhibition ([4]; 48 hours): 8 µg/mL; MIC, 50% inhibition ([5]; 24 hours): 4 µg/mL; MIC, 100% inhibition ([5]; 24 hours): 8 µg/mL; MIC, 50% inhibition ([5]; 48 hours): 4 µg/mL; MIC, 100% inhibition ([5]; 48 hours): 8 µg/mL; MIC, 80% inhibition [6]: 1 µg/mL; MIC, 100% inhibition [6]: 2 µg/mL; MIC, 80% inhibition [7]: 1 µg/mL; MIC, 100% inhibition [7]: 2 µg/mL; MIC, 80% inhibition [8]: 1 µg/mL; MIC, 100% inhibition [8]: 2 µg/mL; MIC, 50% inhibition ([9]; 24 hours): -; MIC, 100% inhibition ([9]; 24 hours): 1 µg/mL; MIC, 50% inhibition ([9]; 48 hours): -; MIC, 100% inhibition ([9]; 48 hours): 2 µg/mL; MIC, 50% inhibition ([10]; 24 hours): 2 µg/mL; MIC, 100% inhibition ([10]; 24 hours): 4 µg/mL; MIC, 50% inhibition ([10]; 48 hours): -; MIC, 100% inhibition ([10]; 48 hours): 4 µg/mL; % hyphae ([11]; T=0hr, replicate 1): 0%; % yeast ([11]; T=0hr, replicate 1): 100%; % hyphae ([11]; T=0hr, replicate 2): 0%; % yeast ([11]; T=0hr, replicate 2): 100%; % hyphae ([11]; T=0hr, replicate 3): 0%; % yeast ([11]; T=0hr, replicate 3): 100%; % hyphae [11, 13]: 0%; % yeast [11, 13]: 100%; % hyphae [11, 14]: 0%; % yeast [11, 14]: 100%; % hyphae [11, 15]: 0%; % yeast [11, 15]: 100%; % hyphae [11, 16]: 0%; % yeast [11, 16]: 100%; % hyphae [11, 17]: 0%; % yeast [11, 17]: 100%; % hyphae [11, 18]: 0%; % yeast [11, 18]: 100%; % hyphae [11, 19]: 0.5%; % yeast [11, 19]: 99.5%; % hyphae [11, 20]: 0%; % yeast [11, 20]: 100%; % hyphae [11, 21]: 0.2%; % yeast [11, 21]: 99.8%; % hyphae [11, 22]: 0%; % yeast [11, 22]: 100%; % hyphae [11, 23]: 0%; % yeast [11, 23]: 100%; effect on hyphal formation ([11]; subinhibitory concentration (1 µg/ml; 0.5× MIC)): blocked hyphal formation; effect on endocytosis (FM-464-stained vesicles) [12]: concentration-dependent reductions in stained endocytic vesicles; also recorded: decreased in a dose-dependent fashion

Reference: PMC6325233, “A Novel Actin Binding Drug with In Vivo Efficacy” (Antimicrobial Agents and Chemotherapy, 2018)
